Drawing on US8609862B2, “Use of an adrenal hormone-modifying agent” (Novartis AG, priority 2010, dated 2013), this text covers IC50 for 3 compounds.

For the assay, the target named is T1, Human CYP11B1 (Homo sapiens, UniProt P15538).
T1 construct: made in house; host or cells: V79-4 cell line #618 (stably selected with geneticin and hygromycin); sonicated homogenate, 500 x g supernatant
T1 sequence (P15538 25-503): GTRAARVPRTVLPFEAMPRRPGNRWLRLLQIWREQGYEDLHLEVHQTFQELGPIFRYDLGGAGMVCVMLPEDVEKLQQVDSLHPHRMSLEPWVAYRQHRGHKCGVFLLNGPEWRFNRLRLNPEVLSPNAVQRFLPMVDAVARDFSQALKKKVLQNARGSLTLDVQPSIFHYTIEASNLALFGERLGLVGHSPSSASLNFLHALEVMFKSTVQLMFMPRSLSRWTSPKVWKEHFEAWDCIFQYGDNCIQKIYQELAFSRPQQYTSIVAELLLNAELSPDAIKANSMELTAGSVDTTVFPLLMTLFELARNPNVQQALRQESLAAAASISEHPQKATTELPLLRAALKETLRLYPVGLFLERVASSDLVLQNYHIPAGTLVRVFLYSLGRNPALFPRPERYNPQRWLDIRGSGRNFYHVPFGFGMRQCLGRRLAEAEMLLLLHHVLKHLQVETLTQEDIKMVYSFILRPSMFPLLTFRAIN
The experiment in a line: In vitro human CYP11B1 assay. Format: biochemical. The following applies: V79-4 cell homogenate, 11-deoxycortisol to cortisol, SPA. An excerpt:
Complete EDTA-free protease inhibitor tablets were obtained from Roche Applied Science (Indianapolis, Ind.). Dulbecco's modified Eagle medium (DMEM), antibiotic, geneticin, hygromycin, and fetal bovine serum (FBS) were products of Invitrogen (Carlsbad, Calif.). NADPH Regeneration Solution A and Solution B were purchased from BD Biosciences Clontech (Palo Alto, Calif.). Anti-mouse PVT SPA beads and [1,2,6,7-^3H(N)]hydrocortisone were acquired from Amersham (Piscataway, N.J.) and PerkinElmer (Boston, Mass.), respectively.
Following 4 days of growth, cells were washed once with PBS, scraped and collected in PBS, and centrifuged at 1,300 rpm for 6 min. […] The sonication procedure was repeated 3 more times, with a 5 min rest on ice between sonications. The sonicated material was then spun at 500×g for 4 min to remove unbroken cells. The supernatant was brought to a final glycerol concentration of 5%, flash-frozen in liquid nitrogen, and stored at −80° C.
The CYP11B1 assays were performed in 96-well U-bottom non-tissue-culture-treated plates. […] Plates were then centrifuged at 2,400 rpm for 6 min, and 50 μl of supernatant was removed for measurement of cortisol content by scintillation proximity assay (SPA). Measurement of cortisol was performed using a 96-well plate format. […] Anti-mouse PVT SPA beads (50 μl) were then added to each well and incubated overnight at room temperature prior to counting in a Microbeta plate counter. The amount of cortisol in each sample was calculated by comparing with a standard curve generated using known quantities of the hormone. Full concentration-response curves of an inhibitor were performed at least 3 times. The IC50 values were derived using a non-linear least squares curve-fitting program from IDBS XLfit.
The compound `N#Cc1ccc(C2CCCCc3cncn32)c(Br)c1` (racemic) [3-bromo-4-(6,7,8,9-tetrahydro-5H-imidazo[1,5-a]azepin-5-yl)benzonitrile racemate, 3-bromo-4-(6,7,8,9-tetrahydro-5H-imidazo[1,5-a]azepin-5-yl)benzonitrile] yielded an IC50 of 0.2 nM.
The value for `N#Cc1ccc(C2CCCCc3cncn32)c(-c2ccc(F)cc2)c1` (single isomer, unassigned) [4′-fluoro-6-(6,7,8,9-tetrahydro-5H-imidazo[1,5-a]azepin-5-yl)biphenyl-3-carbonitrile] was 0.3 nM; that for `COc1ccc(CN(C)C(=O)C2(c3ccc(C#N)cc3Cl)CCc3cncn32)cc1` (stereo not drawn) [5-(2-chloro-4-cyanophenyl)-N-(4-methoxybenzyl)-N-methyl-6,7-dihydro-5H-pyrrolo[1,2-c]imidazole-5-carboxamide] was 0.8 nM.

For orientation: IC50 means the concentration that gives 50% inhibition.
